Assay results: patent US4721787A, “Process for the preparation of benzo-(pyrano and thiopyrano)-pyridines” (Ciba-Geigy Corporation, priority 1985, dated 1988)

Test system: presynaptic dopamine receptor (dopamine autoreceptor)
Experiment: rat gamma-butyrolactone (GBL) model, in-vivo presynaptic dopamine agonist (autoreceptor agonist) activity
Details: i.p.
Experimental: Indicative of potential neuroleptic activity of the compounds of the invention, the in-vivo presynaptic dopamine agonist activity (also called dopamine autoreceptor agonist activity) is determined in the rat gamma-butyrolactone (GBL) model by a modification of the procedure described by Walters and Roth, Naunyn Schmiedeberg's Arch. Pharmacol. 296, 5 (1976). In this model, a presynaptic dopamine agonist inhibits the GBL-induced accumulation of the dopamine precursor DOPA after pretreatment with 3-hydroxybenzylhydrazine (NSD-1015), a DOPA decarboxylase inhibitor.
Test compounds are dissolved in 0.9% saline, with sodium metabisulfite to prevent oxidation, if required. […] Dihydroxyphenylalanine (DOPA) is analyzed by High Pressure Liquid Chromatography/Electrochemistry (HPLC/EC) techniques using a Bio-analytical Systems (BAS) Model LC-150 series Liquid Chromatograph. […] Compounds are detected with an electro-chemical detector having an oxidizing potential of 0.7 volts and sensitivity setting of 20 nAmps/V. Tissue concentrations and recoveries are calculated by using the internal standard dihydroxybenzylamine (DHBA). […] Data is statistically analysed by one-way Analysis of Variance with Duncan's Multiple Comparison Test. The activity of the test compounds is determined as the percent inhibition of DOPA accumulation at a given dose. […]

## CCCN1CCC[C@@H]2c3cc(O)ccc3OC[C@H]21.Cl (relative stereo) [trans-9-hydroxy-4-propyl-1,2,3,4a,5,10b-hexahydro-4H-[1]-benzopyrano[3,4-b]pyridine hydrochloride]
  ED50 in the GBL model (inhibition of DOPA accumulation by 50%): about 0.16 mg/kg
